The values that follow come from paper PMC10900488, “Synthesis and Evaluation of (Bis)benzyltetrahydroisoquinoline Alkaloids as Antiparasitic Agents” (JACS Au, 2024).

By IC50 is commonly meant the concentration that inhibits the measured activity by half. In general, CC50 refers to the concentration at which the toxic effect on the cells reaches its halfway point. Lower therefore signals harm at low concentration.

Series [1] deals with L. infantum promastigotes. Kind of series: Antipromastigote assay (L. infantum), MTT colorimetric. The class given is cell-based, Leishmania (L.) infantum. As to conditions: ± SD; MTT, 48 h; read-out: L. infantum IC50 promastigotes. As for the experimental part:
(§1) Table 1 depicts the antileishmanial (L. infantum) activity evaluation performed against both the amastigote form (evaluated microscopically using an ex vivo intracellular model of mice macrophages) and the promastigote one (using an MTT colorimetric method).[32],[33] The cytotoxicity was evaluated against NCTC cells using an MTT colorimetric method and the selectivity index was determined using the ratio between the CC50 values (NCTC cells) and the IC50 values (amastigotes).[32] […] With respect to the substituents on the C ring, larger, hydrophobic groups conferred greater bioactivity (e.g., 9b–d), whereas small, hydrophilic groups such as a hydroxyl group afford modest to poor bioactivity.
(§2) Leishmania (L.) infantum (MHOM/BR/1972/LD) amastigotes were obtained from golden hamsters (Mesocricetus auratus) spleens following 60-70 days of infection via differential centrifugation. The Stauber method was used to determine the number of parasites.12 […]
Biological activity assays
Antipromastigote Assay (L. infantum)
L. infantum promastigotes (1 × 10^6 cells/well) were added to a 96-well plates. Treatment of the cells with selected compounds (serially diluted 0.14 to 200 μM) was performed in M199 medium supplemented with 0.25% hemin and 10% fetal bovine serum for 48 h at 24 °C. The MTT colorimetric assay was used to determine the activity (IC50) of the compounds. Miltefosine was used as a standard drug and untreated promastigotes were used as a negative control. The half inhibitory concentration (IC50) was determined from a sigmoidal regression of the concentration-response curves generated in GraphPadPrism7. […]

Series [2] deals with L. infantum amastigotes. In words: Antiamastigote assay (L. infantum), ex vivo intracellular model of mice macrophages, microscopy. Type of series: cell-based, Leishmania (L.) infantum. The conditions noted are these: ± SD; intracellular, peritoneal macrophages, 96 h; read-out: L. infantum IC50 amastigotes. As for the experimental part:
as §1, §2
(§3) Peritoneal macrophages were obtained via washing the peritoneal cavity of BALB/c mice with 10% foetal calf serum supplemented RPMI-1640 medium (pH 7.2). The macrophages were maintained in a humidified incubator at 37 °C and with 5% CO2.
(§4) Biological activity assays […]
Antiamastigote Assay (L. infantum)
Peritoneal macrophages (1 × 10^5/well) were added to a 16-well slide chambers (NUNC) and incubated with 5% CO2 at 37 °C. The cells were subsequently infected with L. infantum amastigotes (10:1 amastigotes/macrophage) for 24 h. Treatment of the cells with selected compounds (serially diluted 1.2 to 150 μM) was performed in a humidified incubator for 96 h at 37 °C and with 5% CO2. Untreated cells were used as a negative control and miltefosine was used as a standard drug. The treated cells were fixed on slides with methanol, stained with Giemsa and observed under a light microscope.13 The infection index was used in order to determine the half inhibitory concentration (IC50) (no. infected macrophages × no. amastigotes / total no. […]

The test system of series [3] is T. cruzi trypomastigotes. Kind of series: Antitrypomastigote assay (T. cruzi), resazurin. The class given is cell-based, Trypanosoma (T.) cruzi. The conditions noted are these: ± SD; resazurin, 24 h; read-out: T. cruzi IC50 trypomastigotes. As for the experimental part:
(§5) T. cruzi also assumes several cell morphologies during its lifecycle, which differ between the insect vector and mammalian host. In the latter environment, the parasite transitions between extracellular bloodstream trypomastigotes and intracellular amastigotes; both forms are clinically relevant, particularly during the acute stage of Chagas disease.[34] In this work, antitrypanosomal activity was tested against both the amastigote form (evaluated microscopically using an ex vivo intracellular model using mice macrophages) and the trypomastigote form (using the resazurin in vitro assay).[33],[35] […] In silico predictions of pharmacokinetic profiles were carried out using the SwissADME webtool (see the Supporting Information for details).[36] […]
(§6) […] Cultivation was performed in 2% fetal calf serum supplemented RPMI-1640 medium.
(§7) The trypomastigotes were maintained in a humidified incubator at 37 °C and with 5% CO2. […]
as §4
The half inhibitory concentration (IC50) was determined from a sigmoidal regression of the concentration-response curves generated in GraphPadPrism7. […]
Treatment of the cells with selected compounds (serially diluted 1.2 to 150 μM) was performed in a humidified incubator in RPMI 1640 medium for 24 h at 37 °C and with 5% CO2. Resazurin (0.011% in PBS) was added subsequently to verify parasite viability. Benznidazole was used as a standard drug. The optical density was determined at 570 nm using the FilterMax F5 (Molecular Devices). […]

Series [4] has as its system T. cruzi amastigotes. In words: Antiamastigote assay (T. cruzi), ex vivo intracellular model using mice macrophages, microscopy. The class given is cell-based, Trypanosoma (T.) cruzi. The conditions noted are these: ± SD, peritoneal macrophages, 48 h, read-out: T. cruzi IC50 amastigotes. As for the experimental part: as §5, §6, §7, §3, §4
Peritoneal macrophages (1 × 10^5 cells/well) obtained from the peritoneal cavity of BALB/C mice were added to 16-well chambers (NUNC, Thermo Fischer Scientific). The cells were infected with trypomastigotes (10:1 parasites/macrophage) for 2 h. Then treatment of the infected macrophages with selected compounds (serially diluted 1.2 to 100 μM) was performed in a humidified incubator for 48 h at 37 °C and with 5% CO2. The treated cells were fixed on slides using methanol, stained with Giemsa and observed under a light microscope (EVOS M5000, Thermo, USA) with digital image equipment. The infection index was used in order to determine the half inhibitory concentration (IC50) (no. infected macrophages × no. amastigotes / total no.

In series [5] the test system is NCTC cells. In words: Mammalian toxicity, MTT colorimetric. The class given is cell-based, murine. As for the experimental part: as §1, with “bioactivity. […]” for “bioactivity.”
Murine conjunctive fibroblasts NCTC clone 929 (ATCC) were maintained in 10% foetal calf serum supplemented RPMI-1640 medium (pH 7.2) at 37 °C in a humidified incubator with 5% CO2. […]
as §4
NCTC cells (6 × 10^4/well) were added to a 96-well plate. Treatments of the cells with selected compounds (serially diluted 1.5 to 200 μM) was performed in a humidified incubator for 96 h at 37 °C and with 5% CO2.
The MTT colorimetric method was used to determine the 50% cytotoxic concentration (CC50) and the selectivity index (CC50 against NCTC cells/IC50 against amastigotes).15 […]
[…] At 6 h and 24 h post-treatment, a 1 mL aliquot was taken for imaging. The cell cycle experiment was preformed twice independently.
Generation of mNG::RAD51 tagged cell line
The single-stranded DNA-binding protein RAD51, associated with DNA Repair, LmxM.28.0550 was tagged with endogenous fluorescent protein mNeonGreen (mNG) at the N-terminus. […]
Primers for constructs and sgRNA were designed using LeishGEdit (http://www.leishGEdit.net).
PCR was at 94 °C for 5 min, followed by 35 cycles at 94 °C (15 sec), 65 °C (15 sec), 72 °C (2 min) then finally 72 °C (1 min).
PCR was at 94 °C for 30 sec, followed by 30 cycles at 94 °C (30 sec), 60 °C (30 sec), 72 °C (30 sec) then finally 72 °C (2 min). […] Combined PCR products were precipitated for 20 min with 10 μL 3M sodium acetate and 300 μL EtOH, pelleted at 14000 min-1 30 min, washed once with 70% EtOH, re-pelleted and resuspended in […]
Promastigotes (1 × 10^7 cells) were combined with PCR products and transfected using the Amaxa Nucleofector II.17 Electroporation was performed using 2 mm cuvettes on the X-100 program, followed by immediate suspension in pre-warmed M199 medium. Successful transfectants were selected with 20 μg mL-1 Puromycin 15 h after transfection, taking 4 days to reach stable growth in culture. mNG::RAD51 nuclear foci studies mNG::RAD51 promastigotes (5 × 10^6 cells mL-1) in 7 mL of M199 medium were treated with 7 μL o f compound (S)-9a or (S)-9b dissolved in DMSO giving a final concentration of 50 μM. Phleomycin was used as a positive control at a final concentration of 25 μg mL-1. At T = 0, 15, 30, 60 min, and 2, 6, 24 h post-treatment a 0.8 mL aliquot was taken for imaging.

Series [6] relates to L. donovani promastigotes. Also on record: method as in PMID 26625837, PMID 12203262, PMID 3253497, PMID 25629555, PMID 3075676. The conditions noted are these: reported antiparasitic activity; cited from earlier work.
Series [7] has as its system T. cruzi epimastigotes. Also on record: method as in PMID 26625837, PMID 12203262, PMID 3253497, PMID 25629555, PMID 3075676. As to conditions: reported antiparasitic activity; cited from earlier work.

For the compound `COc1ccc(COc2ccc(C[C@@H]3c4cc(OC)c(OC)cc4CCN3C)cc2)cc1` [(R)-10c], the IC50 was 2.4 ± 0.9 µM in series [1], 9.3 ± 0.4 µM in series [2], 25.3 ± 2.1 µM in series [3] and > 100 µM in series [4]. This compound returned a CC50 in series [5] of 28.1 ± 5.5 µM.
On to `COc1ccc2cc1Oc1ccc(cc1)C[C@H]1c3cc(OC)c(OC)c(c3CCN1C)Oc1c(O)c(OC)cc3c1[C@H](C2)NCC3` [compound 2, northalrugosidine], for which the concentration for half-maximal inhibition (IC50) in series [6] is 0.28 µM.
On to `COc1ccc(COc2ccc(C[C@H]3c4cc(OC)c(OC)cc4CCN3C)cc2)cc1` [(S)-10c], for which the IC50 is 4.8 ± 0.2 µM in series [1], > 150 µM in series [2], 20.4 ± 11.4 µM in series [3] and > 100 µM in series [4]. This compound registered a CC50 in series [5] of 5.8 ± 0.5 µM.
As to `COc1ccc2cc1Oc1ccc(cc1)C[C@H]1c3c(cc(OC)c(O)c3Oc3cc4c(cc3OC)CCN[C@@H]4C2)CCN1C` [compound 3, daphnandrine], in series [7], the 50% inhibitory concentration (IC50) was 43 µM.
